Residues, ends and D or L forms follow the SMILES beside them. *: point of attachment. Cbz = O=C(OCc1ccccc1)*; CH2F = FC*
Key:
REF (T) PML cells [1] = assay: TUNEL test of cell death induced by IFNα; assay type: cell-based, rat; conditions: for cell death evaluated by TUNEL (positive TUNEL signal): with 1 000 U/ml of IFNα
Experimental: (§1) The REF (T) and MEF (T) cells are rat and mouse embryonic fibroblasts immortalized by an SV4DT expression vector. […] For clonogenicity tests, the cells were transfected with 10 μg of SRαtkneo-PML or SRαkneo on culture dishes 10 cm in diameter and selected with neomycin (500 μg/ml). To obtain inducible clones, a pool of RET (T) cells was cotransfected with the plasmid pKSmMt-PML and a hygromycin resistance vector (DSP-Hygro). The resistant colonies were examined for the expression of PML after four hours of treatment with ZnCl2 (150 μM) and subjected to a second cycle of cloning by limiting dilution. Inducible CHO clones were constructed in a similar manner. The monocytes were prepared according to the method of Estaquier et al., 1997. Etoposide (used at 100 μM for 16 to 24 hours) was obtained from Biomol Research Laboratories, zVAD (benzyloxycarbonyl-Val-Ala-Asp fluoromethyl ketone, used at 250 μg/ml) is marketed by Bachem and rat IFNα by Access BioMedical. The human α-interferon was provided by Schering-Plough. The antibodies against the human PML protein are described in the article by Daniel et al., 1993. The Western blot experiments with the endogenous rat PML protein were carried out with the monoclonal antibody 5E10 which detects both rat PML and human PML.
The cells were treated for 2 hours with 150 μM of ZnCl2 (unless otherwise stated) in the presence or absence of heat-inactivated foetal calf serum, and then the cells were washed and incubated in a ZnCl2-free medium. The TUNEL test was carried out according to the manufacturer's instructions (Boehringer Mannheim, kit for detection of cell death in situ), with the exception of the fixing step (4% formaldehyde in phosphate PBS buffer for 10 minutes). The cellular DNA content was evaluated by incubating for 10 minutes in propidium iodide at 50 μg/ml, in the presence of Rnase A at 100 μg/ml at 4° C. Analysis of the expression of phosphatidylserine on the outer sheet of the cell membranes was carried out using Annexin-V-fluos labelling (Boehringer Mannheim) and a loss of mitochondrial polarity with Rhodamin 123 (molecular probes) according to the manufacturer's instructions. The samples were analysed on a FACScan analyser (Lysis II software, Becton Dickinson). For the cleavage of the substrate with caspases, 5×10^6 cells were washed in PBS buffer, and incubated for one hour at 4° C. in 200 μl of lysis buffer (10 mM Hepes, pH 7.4, 2 mM EDTA, 2 mM DTT, 0.1% CHAPS). After centrifugation, 20 μl of supernatant and 180 μl of reaction buffer (100 mM Hepes, pH 7.4, 2% of glycerol, 5 mM DTT, 0.5 mM EDTA, 50 μM DEVD-pNA (Biomol Research Laboratories)) were mixed and the absorbence at 405 nm was measured after incubating for four hours at 37° C. The anti-PARP polyclonal antibody SA-252 is marketed by Biomol Research Laboratories.
The table below represents the cell death, evaluated by TUNEL, of REF (T) PML cells treated for two days with 1 000 U/ml of IFNα and 10^−6 M of As2O3 or of zVAD.

PML protein = assay: Western blot of PML protein expression and location on nuclear bodies; assay type: cell-based, rat; conditions: REF (T) cells
Experimental: The REF (T) and MEF (T) cells are rat and mouse embryonic fibroblasts immortalized by an SV4DT expression vector. […] The Western blot experiments with the endogenous rat PML protein were carried out with the monoclonal antibody 5E10 which detects both rat PML and human PML.

Primary monocytes = assay: Survival of primary monocytes exposed to α-interferon; assay type: cell-based
REF (T) PML cells [2] = assay: TUNEL test of cell death triggered by PML (ZnCl2 induction); assay type: cell-based, rat
Experimental: as §1
The cells were treated for 2 hours with 150 μM of ZnCl2 (unless otherwise stated) in the presence or absence of heat-inactivated foetal calf serum, and then the cells were washed and incubated in a ZnCl2-free medium. The TUNEL test was carried out according to the manufacturer's instructions (Boehringer Mannheim, kit for detection of cell death in situ), with the exception of the fixing step (4% formaldehyde in phosphate PBS buffer for 10 minutes). The cellular DNA content was evaluated by incubating for 10 minutes in propidium iodide at 50 μg/ml, in the presence of Rnase A at 100 μg/ml at 4° C. […] The samples were analysed on a FACScan analyser (Lysis II software, Becton Dickinson). […] After centrifugation, 20 μl of supernatant and 180 μl of reaction buffer (100 mM Hepes, pH 7.4, 2% of glycerol, 5 mM DTT, 0.5 mM EDTA, 50 μM DEVD-pNA (Biomol Research Laboratories)) were mixed and the absorbence at 405 nm was measured after incubating for four hours at 37° C. […]
It is known that the execution of programmed cell death involves the proteolytic activation—of caspases which induce the phenotypic changes in apoptosis by cleavage of nuclear and cytoplasmic proteins (Salvesen et al., 1997). […] Unlike etoposide, no significant cleavage of the colorimetric caspase substrates, YVAD-pNa (class 1 caspase, Boehringer Mannheim) and DEVD-pNA (class 3 caspase, Boehringer Mannheim) after induction with PML could be detected (FIG. 2B).

REF (T) PML cells [3] = assay: Kinetics of synchronized cell death after ZnCl2 induction of PML; assay type: cell-based, rat
Experimental: The cells were treated for 2 hours with 150 μM of ZnCl2 (unless otherwise stated) in the presence or absence of heat-inactivated foetal calf serum, and then the cells were washed and incubated in a ZnCl2-free medium. The TUNEL test was carried out according to the manufacturer's instructions (Boehringer Mannheim, kit for detection of cell death in situ), with the exception of the fixing step (4% formaldehyde in phosphate PBS buffer for 10 minutes). The cellular DNA content was evaluated by incubating for 10 minutes in propidium iodide at 50 μg/ml, in the presence of Rnase A at 100 μg/ml at 4° C. Analysis of the expression of phosphatidylserine on the outer sheet of the cell membranes was carried out using Annexin-V-fluos labelling (Boehringer Mannheim) and a loss of mitochondrial polarity with Rhodamin 123 (molecular probes) according to the manufacturer's instructions. The samples were analysed on a FACScan analyser (Lysis II software, Becton Dickinson). […] After centrifugation, 20 μl of supernatant and 180 μl of reaction buffer (100 mM Hepes, pH 7.4, 2% of glycerol, 5 mM DTT, 0.5 mM EDTA, 50 μM DEVD-pNA (Biomol Research Laboratories)) were mixed and the absorbence at 405 nm was measured after incubating for four hours at 37° C. […]

[4] = treated for two days, 10^-6 M of As2O3 or of zVAD

Compound | kinetics of cell death induction (REF (T) PML cells [1]; compared with ZnCl2 induction) | cell death evaluated by TUNEL (positive TUNEL signal) (REF (T) PML cells [1]; [4]) | cell death evaluated by TUNEL (positive TUNEL signal) (REF (T) PML cells [1]; treated for two days, 10^-6 M of As2O3 or of zVAD, listed as α-interferon) | levels of expression of PML (PML protein) | time to complete disappearance of the cell culture (Primary monocytes; α-interferon alone (1 000 U/ml)) | effect on cell death induced by PML (REF (T) PML cells [2]; ZnCl2 induction, FIG. 1C) | effect on apoptosis induced by etoposide (REF (T) PML cells [2]; etoposide-treated cells, FIG. 1C) | positive TUNEL signal (REF (T) PML cells [2]; zVAD and ZnCl2) | cell death evaluated by TUNEL (REF (T) PML cells [1]; without IFNα, treated for two days, 10^-6 M of As2O3 or of zVAD) | time to death of the whole cell population (Primary monocytes; zVAD added with α-interferon) | cell death with zVAD alone (Primary monocytes; zVAD alone after seven days, three cultures out of eleven) | cell death with zVAD alone (Primary monocytes; zVAD alone for 20 days, most of the primary cultures (8/11)) | positive cells / positive TUNEL signal (REF (T) PML cells [2]; ZnCl2 alone) | time to synchronized cell death of the whole cell population (REF (T) PML cells [3]; 50 μM of ZnCl2) | time to synchronized cell death of the whole cell population (REF (T) PML cells [3]; 150 μM of ZnCl2)
IFNα | same kinetics as 50 μM ZnCl2 | 42% | 42% | induces rat PML | seven | – | – | – | – | – | – | – | – | – | –
COC(=O)C[C@H](NC(=O)[C@H](C)NC(=O)[C@@H](NC(=O)OCc1ccccc1)C(C)C)C(=O)CF [zVAD, benzyloxycarbonyl-Val-Ala-Asp(O-methyl) fluoromethyl ketone] (Cbz-Val-Ala-Asp(OMe)-CH2F) | – | 60% | – | increased | – | does not inhibit cell death induced by PML | blocks apoptosis induced by etoposide | 71% | 5% | ≤ 24 h | induced the death of part of the culture | Little or no cell death | – | – | –
[Cl-].[Cl-].[Zn+2] [ZnCl2] | – | – | – | – | – | – | – | – | – | – | – | – | 45% | 48 h | six
